In brackets after ≈: the same amount, converted by molar mass. One block for each molecule: values may come before it. Activity calls are given as the source filed them. The calls are words filed in the database; no cut-off is given here.
Tests used:
[1] = High throughput solubility of the compound at pH 6.8 after 16 to 24 hrs by MS/MS analysis; assay type: physicochemical; details: buffer, time 16-24 hrs
Cytochrome P450 2D6 = Cytochrome P450 2D6 (Homo sapiens, UniProt P10635); assay: Inhibition of CYP2D6 in human liver microsomes using bufuralol as substrate incubated for 10 mins in presence of NADPH by LC-MS/MS analysis; assay type: ADME, Microsome
[2] = Inhibition of PRC2 (unknown origin) assessed as reduction in H3K27 trimethylation using H3K27Me0 peptide (21 to 44 residues) as substrate by measuring SAH formation by LC-MS analysis; parameters: species or system Homo sapiens
Pfeiffer = assay: Antiproliferative activity against human Pfeiffer cells assessed as inhibition of cell growth after 6 days by celltitre-glo assay; assay type: functional; details: 144 h, time 6 day
cells = details: Homo sapiens, G-401, 48 h
Description: Inhibition of PRC2 in human G-401 cells assessed as H3K27 methylation status incubated for 48 hrs by ELISA method

KARPAS-422 [3] = assay: Antitumor activity against human Karpas-422 cells xenografted Athymic NTac:NIH-Whn nude rat assessed as inhibition of cell growth at 0.3 to 60 mg/kg, po, qd upto 130 days; assay type: functional, organism-based; details: dose 0.3-60 mg/kg, time <= 130.0 day
Mus musculus [4] = assay: Reduction of […] in tumor of human Karpas-422 cells xenografted Athymic BALB/c nude mouse tumor at 3 to 300 mg/kg, po bid for 10 days; assay type: functional, organism-based; details: dose 3-300 mg/kg, time 10.0 day, DDE = dose-dependent effect
Mus musculus [5] = assay: Reduction of H3K27 level in tumor of human Karpas-422 cells xenografted Athymic BALB/c nude mouse at 3 to 100 mg/kg, po bid measured after 14 days; assay type: functional, organism-based; details: dose 3-100 mg/kg, time 14.0 day, DDE = dose-dependent effect
Mus musculus [6] = assay: Reduction of H3K27 level in tumor of human Karpas-422 cells xenografted Athymic BALB/c nude mouse at 3 to 300 mg/kg, po bid for 21 days; assay type: functional, organism-based; details: dose 3-300 mg/kg, time 21.0 day, DDE = dose-dependent effect
PBMC [7] = assay: In vivo inhibition of PRC2 in PBMC collected from human Karpas-422 cells xenografted Athymic NTac:NIH-Whn nude rat assessed as complete recovery of H3K27me3 level at 30 mg/kg, po, qd treated for 4 weeks, followed by 4 weeks recovery period by FACS method; assay type: functional, organism-based
Mus musculus [8] = assay: Reduction of H3K27 level in tumor of human Karpas-422 cells xenografted Athymic BALB/c nude mouse tumor at 20 mg/kg, po qd measured after 14 days; assay type: functional, organism-based; details: time 14.0 day
KARPAS-422 [9] = assay: Antitumor activity against human Karpas-422 cells xenografted Athymic BALB/c nude mouse assessed as effect on tumor growth, at 10 to 300 mg/kg, po bid, treatment started at twenty fifth after implantation of cancer cells measured upto 55 days; assay type: functional, organism-based; details: dose 10-300 mg/kg, time <= 55.0 day, DDE = dose-dependent effect
PBMC [10] = assay: In vivo inhibition of PRC2 in PBMC collected from human Karpas-422 cells xenografted Athymic NTac:NIH-Whn nude rat assessed as reduction in H3K27me3 level at 30 mg/kg, po, qd upto 4 weeks by FACS method; assay type: functional, organism-based; details: TDE = time-dependent effect
[11] = Dose normalized AUC in Sprague-Dawley rat at 2 mg/kg, po; assay type: ADME, organism-based; details: in vivo
Cytochrome P450 3A4 = Cytochrome P450 3A4 (Homo sapiens, UniProt P08684); assay: Inhibition of CYP3A4 in human liver microsomes using midazolam as substrate incubated for 10 mins in presence of NADPH by LC-MS/MS analysis; assay type: ADME, Microsome
[12] = Terminal half life in Sprague-Dawley rat at 2 mg/kg, po; assay type: ADME, organism-based; details: in vivo, read-out: beta t1/2 (converted)
[13] = Dissociation constant, pKa of compound; assay type: physicochemical
[14] = Oral bioavailability in Sprague-Dawley rat at 2 mg/kg; assay type: ADME, organism-based; details: in vivo
[15] = Lipophilicity, logD of the compound at pH 7.4 by LC with tandem MS analysis; assay type: physicochemical; details: buffer, read-out: logD
KARPAS-422 [16] = assay: Antiproliferative activity against human KARPAS-422 cells expressing EZH2 mutant assessed as inhibition of cell growth after 14 days by beckman coulter counting method; assay type: functional; details: Homo sapiens, KARPAS-422, 336 h; time 14 day
[17] = Permeability across apical to basolateral side in human Caco-2 cells at 10 uM incubated for 2 hrs by LC/MS/MS analysis; assay type: ADME, cell-based; details: Caco-2, read-out: permeability
[18] = target: T1, Alpha-2C adrenergic receptor (Homo sapiens, UniProt P18825); assay: Inhibition of alpha2c adrenergic receptor (unknown origin)
T1 sequence (P18825 whole entry): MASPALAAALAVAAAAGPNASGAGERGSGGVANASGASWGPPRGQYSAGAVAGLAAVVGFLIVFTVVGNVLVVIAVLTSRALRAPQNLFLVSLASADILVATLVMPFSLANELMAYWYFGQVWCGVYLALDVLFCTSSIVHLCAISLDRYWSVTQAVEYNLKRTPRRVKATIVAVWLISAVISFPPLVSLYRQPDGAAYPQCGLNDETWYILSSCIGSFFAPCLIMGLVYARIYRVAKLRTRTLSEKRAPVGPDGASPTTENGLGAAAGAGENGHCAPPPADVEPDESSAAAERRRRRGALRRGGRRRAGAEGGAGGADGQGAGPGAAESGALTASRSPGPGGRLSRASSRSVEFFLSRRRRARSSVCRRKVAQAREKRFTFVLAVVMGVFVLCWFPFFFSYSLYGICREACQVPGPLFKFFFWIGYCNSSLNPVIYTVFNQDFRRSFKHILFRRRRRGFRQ

Cytochrome P450 2C9 = Cytochrome P450 2C9 (Homo sapiens, UniProt P11712); assay: Inhibition of CYP2C9 in human liver microsomes using diclofenac as substrate incubated for 10 mins in presence of NADPH by LC-MS/MS analysis; assay type: ADME, Microsome
[19] = target: 3',5'-cyclic-AMP phosphodiesterase 4D (Homo sapiens, UniProt Q08499); assay: Inhibition of human Phosphodiesterase 4D
[20] = Efflux ratio of apparent permeability across basolateral to apical side over apical to basolateral side in human Caco-2 cells at 10 uM incubated for 2 hrs by LC/MS/MS analysis; assay type: ADME, cell-based
[21] = High throughput solubility of the compound at pH 4 after 16 to 24 hrs by MS/MS analysis; assay type: physicochemical; details: buffer, time 16-24 hrs
[22] = High throughput solubility of the compound at pH 7 after 16 to 24 hrs by MS/MS analysis; assay type: physicochemical; details: buffer, time 16-24 hrs

Sequence of Cytochrome P450 2D6 (P10635 whole entry, the tested form may be a part): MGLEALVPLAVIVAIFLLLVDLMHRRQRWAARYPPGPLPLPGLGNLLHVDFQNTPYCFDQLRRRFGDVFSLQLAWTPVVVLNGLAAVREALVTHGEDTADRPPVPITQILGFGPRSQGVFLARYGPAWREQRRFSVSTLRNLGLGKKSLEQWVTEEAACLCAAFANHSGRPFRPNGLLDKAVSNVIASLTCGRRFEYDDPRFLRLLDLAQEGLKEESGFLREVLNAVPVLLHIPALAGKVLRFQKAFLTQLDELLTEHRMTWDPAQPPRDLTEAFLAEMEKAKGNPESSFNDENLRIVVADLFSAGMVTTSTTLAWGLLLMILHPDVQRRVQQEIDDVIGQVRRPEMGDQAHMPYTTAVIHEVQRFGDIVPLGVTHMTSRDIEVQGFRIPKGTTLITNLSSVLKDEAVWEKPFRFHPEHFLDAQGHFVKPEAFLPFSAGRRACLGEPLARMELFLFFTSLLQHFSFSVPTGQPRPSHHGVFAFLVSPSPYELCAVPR
Sequence of Cytochrome P450 2C9 (P11712 whole entry): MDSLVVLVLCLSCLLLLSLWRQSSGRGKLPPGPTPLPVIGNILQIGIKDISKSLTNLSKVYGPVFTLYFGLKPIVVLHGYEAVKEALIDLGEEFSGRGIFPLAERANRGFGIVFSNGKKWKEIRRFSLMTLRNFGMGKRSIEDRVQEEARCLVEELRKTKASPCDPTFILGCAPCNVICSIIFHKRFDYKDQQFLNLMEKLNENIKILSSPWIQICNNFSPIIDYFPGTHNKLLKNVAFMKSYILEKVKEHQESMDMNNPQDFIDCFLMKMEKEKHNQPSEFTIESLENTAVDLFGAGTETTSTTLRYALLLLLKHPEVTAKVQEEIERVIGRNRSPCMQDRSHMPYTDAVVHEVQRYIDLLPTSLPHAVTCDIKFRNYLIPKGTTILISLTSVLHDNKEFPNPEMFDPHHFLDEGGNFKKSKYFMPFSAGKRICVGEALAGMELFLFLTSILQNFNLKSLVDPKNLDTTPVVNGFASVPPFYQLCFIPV
Sequence of 3',5'-cyclic-AMP phosphodiesterase 4D (Q08499 whole entry): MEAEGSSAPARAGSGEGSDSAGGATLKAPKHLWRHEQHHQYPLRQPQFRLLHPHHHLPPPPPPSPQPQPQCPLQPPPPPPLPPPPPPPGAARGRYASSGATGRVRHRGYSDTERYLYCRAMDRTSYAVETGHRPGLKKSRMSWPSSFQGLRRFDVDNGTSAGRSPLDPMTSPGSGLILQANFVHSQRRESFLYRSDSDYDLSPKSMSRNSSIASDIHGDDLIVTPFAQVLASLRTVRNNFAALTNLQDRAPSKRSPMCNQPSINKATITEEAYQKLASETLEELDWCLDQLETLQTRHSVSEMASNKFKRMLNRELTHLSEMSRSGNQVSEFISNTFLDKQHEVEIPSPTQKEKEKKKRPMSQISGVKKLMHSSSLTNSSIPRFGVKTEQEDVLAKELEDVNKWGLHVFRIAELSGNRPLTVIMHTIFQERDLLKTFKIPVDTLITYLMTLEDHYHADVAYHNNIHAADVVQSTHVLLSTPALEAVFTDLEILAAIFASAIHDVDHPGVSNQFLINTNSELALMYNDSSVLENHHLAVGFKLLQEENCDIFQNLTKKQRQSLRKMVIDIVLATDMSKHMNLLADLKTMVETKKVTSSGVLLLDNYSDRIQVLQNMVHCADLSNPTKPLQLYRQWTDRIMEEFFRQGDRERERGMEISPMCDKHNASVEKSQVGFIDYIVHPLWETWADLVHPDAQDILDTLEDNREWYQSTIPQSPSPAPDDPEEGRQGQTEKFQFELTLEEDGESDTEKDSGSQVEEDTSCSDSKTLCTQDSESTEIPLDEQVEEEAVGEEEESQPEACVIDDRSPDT
Sequence of Cytochrome P450 3A4 (P08684 whole entry): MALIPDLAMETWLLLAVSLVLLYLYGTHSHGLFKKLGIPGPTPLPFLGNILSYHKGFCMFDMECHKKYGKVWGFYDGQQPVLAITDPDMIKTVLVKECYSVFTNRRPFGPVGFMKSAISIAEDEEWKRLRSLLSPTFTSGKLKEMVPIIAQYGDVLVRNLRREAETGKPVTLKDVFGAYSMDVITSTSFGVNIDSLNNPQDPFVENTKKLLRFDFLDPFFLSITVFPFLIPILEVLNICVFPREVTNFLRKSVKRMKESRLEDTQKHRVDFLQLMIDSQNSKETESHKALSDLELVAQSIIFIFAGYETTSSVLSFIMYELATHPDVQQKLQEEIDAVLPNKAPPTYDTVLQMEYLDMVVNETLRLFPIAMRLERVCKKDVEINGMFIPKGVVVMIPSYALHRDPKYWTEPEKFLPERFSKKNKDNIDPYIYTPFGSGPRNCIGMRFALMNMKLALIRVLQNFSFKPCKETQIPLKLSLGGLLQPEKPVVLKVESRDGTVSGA

SMILES: Fc1ccc2c(c1CNc1ncc(-c3cccnc3)c3nncn13)CCO2
solubility [1]: 85 µM (≈ 30.8 µg/mL)
IC50 (Cytochrome P450 2D6): 0.019 µM

SMILES: COc1cccc(F)c1CNc1ccc(-c2cccnc2C)c2nncn12
solubility [1]: 265 µM (≈ 96.3 µg/mL)
IC50 (Cytochrome P450 2D6): > 50 µM
IC50 [2]: 0.011 µM

SMILES: Cc1ccc(-c2cnc(NCc3c(F)ccc4c3CCO4)n3cnnc23)c(C)n1
solubility [1]: 308 µM (≈ 120 µg/mL)
IC50 (Cytochrome P450 2D6): 31 µM
IC50 [2]: 0.005 µM

SMILES: Cc1ncccc1-c1cnc(NCc2c(F)ccc3c2CCO3)n2cnnc12
Activity (KARPAS-422 [3]): Active
Activity (Mus musculus [4]): Dde
Activity (Mus musculus [5]): Dde
Activity (Mus musculus [6]): Dde
inhibition (PBMC [7]): Active
Activity (Mus musculus [8]): Active
Activity (KARPAS-422 [9]): Dde
inhibition (PBMC [10]): Tde

SMILES: COc1cccc(F)c1CNc1ccc(-c2ccc(C)nc2C)c2nncn12
solubility [1]: 162 µM (≈ 61.1 µg/mL)
IC50 (Cytochrome P450 2D6): 25 µM
IC50 [2]: 0.023 µM

SMILES: COc1cccc(F)c1CNc1ccc(-c2cccnc2)c2nncn12
solubility [1]: 22 µM (≈ 7.69 µg/mL)
IC50 (Cytochrome P450 2D6): 0.4 µM
IC50 [2]: 0.016 µM

SMILES: Cc1ncccc1-c1cnc(NCc2c(F)ccc3c2CCO3)n2cnnc12.Cl
solubility [21]: 494 µM
solubility [22]: 69 µM

Further lines, with some results ahead:

solubility [1]: 112 µM (≈ 42.2 µg/mL)
IC50 (Cytochrome P450 2D6): 7.4 µM
IC50 [2]: 0.019 µM
SMILES: Cc1ccc(-c2cnc(NCc3c(F)ccc4c3CCO4)n3cnnc23)cn1

IC50 (cells): 14 µM
IC50 [2]: 20 µM
SMILES: CN(C)Cc1ccc(-c2cnc(NCc3cccc4c3CCO4)n3cnnc23)cc1
GI50 (Pfeiffer): 0.067 µM

IC50 (cells): 260 µM
IC50 [2]: 15 µM
SMILES: CN(C)Cc1ccc(-c2cnc(NCc3cccc4c3OCO4)n3cnnc23)cc1
GI50 (Pfeiffer): 1.3 µM

IC50 [2]: 2600 µM
SMILES: CN(C)Cc1ccc(-c2cnc(NCc3cccc4c3OCC4)n3cnnc23)cc1

AUC/dose [11]: 5790 nM·h
IC50 (Cytochrome P450 3A4): 29 µM
solubility [1]: 15 µM (≈ 5.17 µg/mL)
half-life [12]: 1.5 h
pKa [13]: 4.5
bioavailability [14]: 71%
logD [15]: 2.6
GI50 (KARPAS-422 [16]): 0.012 µM
Papp A→B at 2 h, 10 µM [17]: 300 nm/s
IC50 (cells): 0.033 µM
IC50 [18]: 3.9 µM
IC50 (Cytochrome P450 2C9): 12 µM
IC50 [19]: 2.6 µM
IC50 (Cytochrome P450 2D6): 0.1 µM
IC50 [2]: 0.024 µM
efflux ratio at 2 h, 10 µM [20]: 0.96
SMILES: c1cncc(-c2cnc(NCc3cccc4c3CCO4)n3cnnc23)c1

solubility [1]: 5 µM (≈ 1.72 µg/mL)
pKa [13]: 5.4
logD [15]: 2.5
GI50 (KARPAS-422 [16]): 0.01 µM
IC50 [18]: > 30 µM
IC50 (Cytochrome P450 2C9): > 50 µM
IC50 [19]: 10 µM
IC50 (Cytochrome P450 2D6): 0.2 µM
IC50 [2]: 0.017 µM
SMILES: c1cc(CNc2ncc(-c3ccncc3)c3nncn23)c2c(c1)OCC2

IC50 (cells): 320 µM
IC50 [2]: 110 µM
SMILES: COc1cccc(CNc2ncc(-c3ccc(CN(C)C)cc3)c3nncn23)c1
GI50 (Pfeiffer): 2.97 µM
